Patent US11008313B2, “Substituted 1-methyl-1,2,3,4-tetrahydroisoquinoline molecules as PCSK9 allosteric binders” (Merck Sharp & Dohme Corp., priority 2016, dated 2021)

How the values were obtained:
PCSK9 [1] = target: T1, PCSK9 (Homo sapiens, UniProt Q8NBP7); assay: Fluorescence polarization competition binding assay (probe: compound of Example 57); conditions: 2 μM PCSK9, 50 nM compound of Example 57 as probe, overnight incubation; read-out: FP IC
Description: Relative compound affinities were determined using a competition binding assay with a fluorescence polarization format. Solution (49 μL) containing 2 μM PCSK9 and 50 nM compound of Example 57 in 20 mM HEPES (pH 7.5)/150 mM NaCl/1 mM CaCl2/0.005% P-20 was dispensed to wells of a 384-well black non-binding microplate before the addition of 1 μL of test compound or DMSO. After mixing, the plate was centrifuged and sealed for overnight incubation in the dark. The anisotropy signal was read using a fluorescence polarization protocol on a Perkin-Elmer Envision plate reader. The % inhibition was determined relative to the window defined by the DMSO control wells and wells containing 50 nM probe in the absence of PCSK9.

PCSK9 [2] = target: T1, PCSK9; assay: Differential scanning calorimetry (DSC) assay, direct binding / thermal stabilization of PCSK9; conditions: Tm(with compound)−Tm(no compound); 2 μM PCSK9, 300 μM test compound
Description: Differential scanning calorimetry (DSC) was used as a biophysical method to confirm direct binding to PCSK9. A solution containing 2 μM PCSK9 with or without 300 μM test compound in 25 mM HEPES (pH 7.5)/150 mM NaCl/1 mM CaCl2/3.75% DMSO was transferred to the sample cell of the DSC instrument, while buffer alone was placed in the reference cell. Both cells were heated at a constant rate (200° C./hr) from 20-80° C. while recording the excess heat capacity of the sample cell relative to the reference cell. Each thermogram was analyzed to provide the melting temperature (Tm) of the protein.
The higher the temperature shift generally, the higher the affinity.

T1 sequence (Q8NBP7 153-692): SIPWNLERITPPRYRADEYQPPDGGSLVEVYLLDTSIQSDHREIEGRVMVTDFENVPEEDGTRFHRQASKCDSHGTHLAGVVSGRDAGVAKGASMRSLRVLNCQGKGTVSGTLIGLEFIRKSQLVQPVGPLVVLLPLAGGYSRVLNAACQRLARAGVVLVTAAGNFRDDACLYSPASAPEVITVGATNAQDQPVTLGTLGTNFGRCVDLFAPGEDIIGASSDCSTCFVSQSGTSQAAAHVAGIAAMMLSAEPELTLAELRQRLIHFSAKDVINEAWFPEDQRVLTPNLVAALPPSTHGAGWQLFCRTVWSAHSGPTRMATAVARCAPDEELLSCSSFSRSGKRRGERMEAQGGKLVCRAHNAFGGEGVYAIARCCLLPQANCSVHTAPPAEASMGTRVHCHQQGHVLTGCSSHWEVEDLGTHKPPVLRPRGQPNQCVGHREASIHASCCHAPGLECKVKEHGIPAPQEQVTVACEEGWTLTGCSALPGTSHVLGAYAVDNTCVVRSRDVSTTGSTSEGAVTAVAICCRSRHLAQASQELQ

| Structure (SMILES) | IC50 (PCSK9 [1]) [nM] | ΔTm at 300 µM (PCSK9 [2]) [°C] | DSC ΔTm (PCSK9 [2]) [°C] |
| --- | --- | --- | --- |
| C[C@]1(CC(=O)Nc2nccs2)NCCc2cc(OCC3CCCO3)c(Oc3ccc(C(=O)O)cc3)cc21 (stereo partly drawn) [Example 67, 4-(((1R)-1-methyl-1-(2-oxo-2-(thiazol-2-ylamino)ethyl)-6-((tetrahydrofuran-2-yl)methoxy)-1,2,3,4-tetrahydroisoquinolin-7-yl)oxy)benzoic acid] | 420 | 7.31 |  |
| Cc1ccc(C2C(C(=O)O)c3ccccc3C(=O)N2c2cccc(-c3cn(CCOc4cc5c(cc4Oc4ccc(C(=O)O)c(F)c4)[C@@](C)(CC(=O)Nc4nccs4)NCC5)nn3)c2)cc1 (stereo partly drawn) [Example 54, 2-(3-(1-(2-(((R)-7-(4-carboxy-3-fluorophenoxy)-1-methyl-1-(2-oxo-2-(thiazol-2-ylamino)ethyl)-1,2,3,4-tetrahydroisoquinolin-6-yl)oxy)ethyl)-1H-1,2,3-triazol-4-yl)phenyl)-1-oxo-3-(p-tolyl)-1,2,3,4-tetrahydroisoquinoline-4-carboxylic acid] | 837 |  | 5.98 |
| C[C@]1(CC(=O)Nc2nccs2)NCCc2cc(OCC3CCCCO3)c(Oc3ccc(C(=O)O)c(F)c3)cc21 (single isomer, unassigned) [Example 70, 2-fluoro-4-(((1R)-1-methyl-1-(2-oxo-2-(thiazol-2-ylamino)ethyl)-6-(((R or S)-tetrahydro-2H-pyran-2-yl)methoxy)-1,2,3,4-tetrahydroisoquinolin-7-yl)oxy)benzoic acid] | 551 | 7.98 |  |
| C[C@]1(CC(=O)Nc2nccs2)NCCc2cc(OCC3CCCCO3)c(Oc3cccc(F)c3)cc21 (single isomer, unassigned) [Example 80, 2-((1R)-7-(3-fluorophenoxy)-1-methyl-6-(((R or S)-tetrahydro-2H-pyran-2-yl)methoxy)-1,2,3,4-tetrahydroisoquinolin-1-yl)-N-(thiazol-2-yl)acetamide] | 550 | 6.09 |  |
| C[C@]1(CC(=O)Nc2nccs2)NCCc2cc(OCc3ncccn3)c(Oc3ccc(-c4ccc(C(=O)O)cc4)c(F)c3)cc21 [Example 19, (R)-2′-fluoro-4′-((1-methyl-1-(2-oxo-2-(thiazol-2-ylamino)ethyl)-6-(pyrimidin-2-ylmethoxy)-1,2,3,4-tetrahydroisoquinolin-7-yl)oxy)-[1,1′-biphenyl]-4-carboxylic acid] | 162 | 9.05 |  |
| COc1cc2c(cc1Oc1cncc(F)c1)[C@@](C)(CC(=O)Nc1nccs1)NCC2 [Example 8, (R)-2-(7-((5-fluoropyridin-3-yl)oxy)-6-methoxy-1-methyl-1,2,3,4-tetrahydroisoquinolin-1-yl)-N-(thiazol-2-yl)acetamide] | 753 | 5.44 |  |
| COc1cc2c(cc1Oc1ccc(-c3ccc(C(=O)O)cc3F)cc1)[C@@](C)(CC(=O)Nc1nccs1)NCC2 [Example 29, (R)-2-fluoro-4′-((6-methoxy-1-methyl-1-(2-oxo-2-(thiazol-2-ylamino)ethyl)-1,2,3,4-tetrahydroisoquinolin-7-yl)oxy)-[1,1′-biphenyl]-4-carboxylic acid] | 416 | 5.37 |  |
| C[C@]1(CC(=O)Nc2nccs2)NCCc2cc(OCC3CCCO3)c(Oc3ccc(-c4c[nH]c5c(C(=O)O)cccc45)c(F)c3)cc21 (stereo partly drawn) [Example 20, 3-(2-fluoro-4-(((1R)-1-methyl-1-(2-oxo-2-(thiazol-2-ylamino)ethyl)-6-((tetrahydrofuran-2-yl)methoxy)-1,2,3,4-tetrahydroisoquinolin-7-yl)oxy)phenyl)-1H-indole-7-carboxylic acid] | 188 | 8.56 |  |
| COc1cc2c(cc1Oc1cccc(F)c1)[C@@](C)(CC(=O)Nc1nccs1)NCC2 [Example 9, (R)-2-(7-(3-fluorophenoxy)-6-methoxy-1-methyl-1,2,3,4-tetrahydroisoquinolin-1-yl)-N-(thiazol-2-yl)acetamide] | 847 | 5.92 |  |
| COc1cc2c(cc1Oc1cccc(F)c1)[C@@](C)(CC(=O)Nc1cccc3[nH]ccc13)NCC2 [Example 12, (R)-2-(7-(3-fluorophenoxy)-6-methoxy-1-methyl-1,2,3,4-tetrahydroisoquinolin-1-yl)-N-(1H-indol-4-yl)acetamide] | 753 | -0.225 |  |

Further compounds by falling IC50 (PCSK9 [1]), results first:

| IC50 (PCSK9 [1]) [nM] | ΔTm at 300 µM (PCSK9 [2]) [°C] | DSC ΔTm (PCSK9 [2]) [°C] | Structure (SMILES) |
| --- | --- | --- | --- |
| 778 | 5.58 |  | COc1ccccc1C(=O)Nc1ccccc1-n1cc(C(=O)NCc2cn(CCOc3cc4c(cc3Oc3ccc(C(=O)O)c(F)c3)[C@@](C)(CC(=O)Nc3nccs3)NCC4)nn2)nc1C [Example 52, (R)-2-fluoro-4-((6-(2-(4-((1-(2-(2-methoxybenzamido)phenyl)-2-methyl-1H-imidazole-4-carboxamido)methyl)-1H-1,2,3-triazol-1-yl)ethoxy)-1-methyl-1-(2-oxo-2-(thiazol-2-ylamino)ethyl)-1,2,3,4-tetrahydroisoquinolin-7-yl)oxy)benzoic acid] |
| 667 |  | 5.5 | COc1cc2c(cc1Oc1ccc(-c3ccc(C(=O)O)cc3)cc1)[C@@](C)(CC(=O)Nc1nccs1)NCC2 [Example 34, (R)-4′-((6-methoxy-1-methyl-1-(2-oxo-2-(thiazol-2-ylamino)ethyl)-l,2,3,4-tetrahydroisoquinolin-7-yl)oxy)-[1,1′-biphenyl]-4-carboxylic acid] |
| 477 | 7.56 |  | C[C@]1(CC(=O)Nc2nccs2)NCCc2cc(OCc3ncccn3)c(Oc3ccc(C(=O)O)c(F)c3)cc21 [Example 68, (R)-2-fluoro-4-((1-methyl-1-(2-oxo-2-{thiazol-2-ylamino)ethyl)-6-(pyrimidin-2-ylmethoxy)-1,2,3,4-tetrahydroisoquinolin-7-yl)oxy)benzoic acid] |
| 407 | 6.91 |  | COc1cc2c(cc1Oc1ccc(-c3ccc(/C=C/C(=O)O)cc3)c(F)c1)[C@@](C)(CC(=O)Nc1nccs1)NCC2 [Example 28, (RE)-3-(2′-fluoro-4′-((6-methoxy-1-methyl-1-(2-oxo-2-(thiazol-2-ylamino)ethyl)-1,2,3,4-tetrahydroisoquinolin-7-yl)oxy)-[1,1′-biphenyl]-4-yl)acrylic acid] |
| 302 | 6.6 |  | COc1cc2c(cc1Oc1ccc(-c3ccc(C(=O)O)cc3F)c(F)c1)[C@@](C)(CC(=O)Nc1nccs1)NCC2 [Example 25, (R)-2,2′-difluoro-4′-((6-methoxy-1-methyl-1-(2-oxo-2-(thiazol-2-ylamino)ethyl)-1,2,3,4-tetrahydroisoquinolin-7-yl)oxy)-[1,1′-biphenyl]-4-carboxylic acid] |
| 3.76 | 3.31 |  | COC(=O)C1(c2ccc(-c3ccc(Oc4cc5c(cc4OC)CCN[C@]5(C)CC(=O)Nc4nccs4)cn3)cc2)CC1 [Example 15, methyl (R)-1-(4-(5-((6-methoxy-1-methyl-1-(2-oxo-2-(thiazol-2-ylamino)ethyl)-1,2,3,4-tetrahydroisoquinolin-7-yl)oxy)pyridin-2-yl)phenyl)cyclopropane-1-carboxylate] |
| 1.55 | 6.27 |  | COC(=O)c1cc(-c2cc3c(cc2OCC2CCCCO2)CCNC3(C)CC(=O)Nc2nccs2)ccc1F (stereo not shown) [Example 111, methyl 2-fluoro-5-(1-methyl-1-(2-oxo-2-(thiazol-2-ylamino)ethyl)-6-((tetrahydro-2H-pyran-2-yl)methoxy)-1,2,3,4-tetrahydroisoquinolin-7-yl)benzoate] |
